Data taken from patent US20090093054A1, “CRYOPRESERVATION OF HUMAN BLASTOCYST-DERIVED STEM CELLS BY USE OF A CLOSED STRAW VITRIFICATION METHOD” (Cellartis AB, priority 2003, published 2009).
Where “and” joins values, the source holds several entries; their conditions need not be identical. Identical values can stand only once.

Assays:
Human BS cell line SA121 = experiment: Thawing recovery after closed straw vitrification and devitrification, cell line SA121; assay type: cell-based; settings: for Thawing recovery (SA121): viable colonies / pieces vitrified per closed straw, 48 h after seeding; for Thawing recovery, trehalose compared with sucrose: same molar concentration in vitrification and devitrification medium; for Thawing recovery: viable thawed colonies / hBS cell pieces originally vitrified, per individual closed straw, 48 h after seeding on MEF, sugar in vitrification and devitrification medium, same molar concentration for both
Experimental: Two solutions A and B are prepared (Solution A: Sterile filtered 10% Ethylene glycol, 10% DMSO in Cryo-PBS; Solution B: Sterile filtered 0.3M Trehalose, 20% Ethylene glycol, 10% DMSO in Cryo-PBS) Selected colonies of human blastocyst-derived stem cells, which display proper morphology, are cut in the same way as when the cells are cut for regular passage using a stem cell cutting tool (Swemed Labs International, BilIdal, Sweden). The cell pieces should be about 0.1-0.4 mm×0.1-0.4 mm in size. The cell pieces are incubated first in 500 μl preheated (37° C.) Solution A for 1 min and then transferred to 25 μl Solution B and incubated for 30 s and then transferred again to a fresh drop of Solution B and incubated for 30 s. The volume is about 40-50 μl. About 10 cell pieces are aspirated into a straw prepared for vitrification and the straw is then closed with a bond. The straw is plunged into liquid nitrogen.
Two solutions C and D are prepared (Solution C: Sterile filtered 0.2M Trehalose in Cryo-PBS.; Solution D: Sterile filtered 0.1 M Trehalose in Cryo-PBS). Solutions C and D and hBS-medium are preheated at 37° C. A closed straw containing vitrified hBS cells (about 10 cell pieces) is removed from the liquid nitrogen tank. The straw is keep at room temperature for 10 s and then quickly thawed in a 40° C. water bath (within seconds). The straw is cut open in the plugged end using an autoclaved pair of scissors and the content pushed out from the straw into solution C using a syringe. The hBS cells are incubated for 1 min in 500 μl solution C and the transferred to 500 μl solution D and incubated for 5 min. Under a stero-microscope the hBS cell pieces are quickly rinsed in hBS medium and then seeded in a culture dish on top of mouse embryonic feeder cells in hBS medium. The cells are then cultured (incubated at 37° C.) and the number of established new colonies are counted and passaged in order to verify the viability of the hBS cells after vitrification. The recovery of viable cells following this vitrifying and thawing procedures is normally in the range of 70-100%.
Human BS cells (cell line SA121) were vitrified and thawed either following the procedure described in Example 1 & 2 or following the procedure described in Example 1 and 2 with the exception that trehalose was used in the vitrification and devitrification medium was replaced by sucrose in the same molar concentration as used for trehalose. Forty-eight hours after seeding in culture dishes on top of mouse embryonic feeder cells the hBS cell colonies were evaluated and counted. The thawing recovery was calculated as the ratio between the number of viable thawed colonies (displaying appropriate hBS cell morphology) and the number of hBS cell pieces originally vitrified. […]
Human BS cells (cell line SA121) were vitrified and thawed following the procedure described in Example 1 & 2 with the exception that trehalose was used in two different concentrations (0.3M and 0.5M) in the second vitrification solution (solution B). When 0.3 M trehalose was used in solution B, solution C contained 0.2 M trehalose and solution D contained 0.1 M trehalose. When 0.5 M trehalose was used in solution B, solution C contained 0.4 M trehalose and solution D contained 0.2 M trehalose. Forty-eight hours after seeding in culture dishes on top of mouse embryonic feeder cells the hBS cell colonies were evaluated and counted. The thawing recovery was calculated as the ratio between the number of viable thawed colonies (displaying appropriate hBS cell morphology) and the number of hBS cell pieces originally vitrified. Two separate experiments using two different human BS cell lines were performed. Three straws were prepared and evaluated per cell line and the results are presented below for each individual straw.

Human BS cell line SA002 = experiment: Thawing recovery after closed straw vitrification and devitrification, cell line SA002; assay type: cell-based; settings: viable colonies / pieces vitrified per closed straw, 48 h after seeding
[1] = 0.3M trehalose in solution B (C 0.2 M, D 0.1 M)
[2] = 0.5M trehalose in solution B (C 0.4 M, D 0.2 M)

Row | SMILES | Thawing recovery (SA121) (Human BS cell line SA121; [1]) | Thawing recovery (SA121) (Human BS cell line SA121; [2]) | Thawing recovery, 0.5 M compared with 0.3 M trehalose in solution B (Human BS cell line SA121; cell lines SA121 and SA002, result in words) | Thawing recovery, trehalose compared with sucrose (Human BS cell line SA121; result in words) | Thawing recovery (Human BS cell line SA121) | Thawing recovery (SA002) (Human BS cell line SA002; [1]) | Thawing recovery (SA002) (Human BS cell line SA002; [2])
1 | OC[C@H]1O[C@H](O[C@H]2O[C@H](CO)[C@@H](O)[C@H](O)[C@H]2O)[C@H](O)[C@@H](O)[C@@H]1O [Trehalose] | 6/10 and 5/10 | 8/10 and 9/10 and 8/8 | seems to work better | no significant difference | 5/9 and 8/10 and 6/10 | 5/8 and 6/8 and 7/7 | 7/8 and 8/8 and 5/7
2 | OC[C@H]1O[C@@](CO)(O[C@H]2O[C@H](CO)[C@@H](O)[C@H](O)[C@H]2O)[C@@H](O)[C@@H]1O [Sucrose] | – | – | – | no significant difference | 8/10 and 5/10 and 9/10 | – | –
